In series [1] the test system is BRD4 BD1. It is filed as binding, human. The conditions noted are these: TR-FRET. Here is the method:
(§1) As a strategic decision, every compound synthesized across all of GSK’s bromodomain research projects was tested in both a BRD4 BD1 and a BRD4 BD2 TR-FRET assay as part of tier 1 data generation. […] LipE is a straightforward, yet powerful metric for medicinal chemistry teams to normalize potency relative to lipophilicity, a critical factor both for parameters of the human dose equation and also for promiscuity.[43],[44] To aid interpretation, diagonal lines representing different LipE values are shown, with the most desirable space found toward the top left-hand area of the plot representing molecules with the comparatively highest potency per unit of lipophilicity.
(§2) All TR-FRET and hWB cytokine assays have been described previously.[54]
For orientation: In TR-FRET formats the signal depends on donor and acceptor labels being close together.

Another series relates to BRD4 BD2. Kind of series: BRD4 BD2 TR-FRET assay. It is filed as binding, human. Here is the method: as §1, §2
A short description of series [2]: Chromatographic LogD at pH 7.4.
A short description of series [3]: CLND kinetic aqueous solubility.
The next series concerns BET BD2. The following applies: cited from earlier work.
For the next series, the system named is MCP-1. In words: LPS-stimulated human whole blood (hWB) MCP-1 release assay. It is filed as cell-based. The following applies: LPS-stimulated human whole blood; read-out: hWB MCP-1 pIC50 (converted).
Text: The utility of a chemical probe in target validation is directly related to its quality, with important publications detailing requirements to aid researchers.[36]−[38] […] It was accepted that selectivity would be judged initially through a mutant BRD4 TR-FRET assay and would likely shift depending on the protein construct and assay format. […] Previous studies have shown that BET BD1 inhibition is sufficient to inhibit in vitro production of MCP-1 in LPS-stimulated hWB and, as such, served as a relevant measure of cellular target engagement and, concomitantly, proof of cellular permeability.[12],[39] Selectivity over other human bromodomains outside of the BET family, known collectively as non-BET bromodomains, was also required,[40] with a ≥ 100-fold selectivity window targeted. To ensure the molecules remained within developable chemical space, a target property forecast index (PFI) as defined by chromLogDpH7.4 + number of aromatic rings ≤6 was set.[41]
(§3) To understand cellular target engagement, 21 was tested in an LPS-stimulated hWB assay measuring inhibition of the inflammatory mediator MCP-1 secretion.
as §2

A short description of the next series: CAD aqueous solubility. Here is the method:
as §3
ChromatographicLogD at pH 7.4, artificial membrane permeability, CLND solubility, and CAD solubility were measured using published protocols.[55]

Another series deals with BET BD1. The conditions noted are these: cited from earlier work.
In series [4] the test system is BRD4 BD1. The following applies: literature compound, no reference given; cited from earlier work.

Where two headings read alike, the source gives them in different places.

One may read the chromatographic logD as lipophilicity estimated from chromatographic retention. Lower therefore signals lower lipophilicity. For orientation: solubility means the dissolved amount per volume that the medium holds. For the molecule `CC(=O)N1CCC[C@H](Cn2c(-c3cc(C)c(=O)n(C)c3)nc3ccccc32)C1` [(R)-12, (R)-5-(1-((1-Acetylpiperidin-3-yl)methyl)-1H-benzo[d]imidazole-2-yl)-1,3-dimethylpyridin-2(1H)-one], in the series with BRD4 BD1 [1], the “BRD4 BD1 FRET pIC50” value is on record as 7.5 and the “fold selectivity (BRD4 BD1 over BRD4 BD2)” value (from here on “fold selectivity”) came out at 16 fold. For the same molecule, the “BRD4 BD2 FRET pIC50” value with BRD4 BD2 worked out at 6.3. In addition, the chromatographic logD in [2] (pH 7.4) was found to be 2.3. In addition, in series [3] (aqueous), the solubility is at least 169 µg/mL.
Consider `CC(=O)N1CCC[C@@H](Cn2c(-c3cc(C)c(=O)n(C)c3)nc3ccccc32)C1` [(S)-12, (S)-5-(1-((1-Acetylpiperidin-3-yl)methyl)-1H-benzo[d]imidazole-2-yl)-1,3-dimethylpyridin-2(1H)-one], for which, in the series on BRD4 BD1 [1], the “BRD4 BD1 FRET pIC50” value is recorded as 8.0 and the “fold selectivity” value worked out at 63 fold. Also, the IC50 in the series with BRD4 BD1 [1] (read-out: BRD4 BD1 potency (IC50)) came out at 10 nM. Moreover, the “BRD4 BD2 FRET pIC50” value in the series with BRD4 BD2 came to 6.2. Also, in [2] (chromLogDpH7.4 + number of aromatic rings), the “PFI (property forecast index)” value was 5.2. Further, the chromatographic logD in series [2] (pH 7.4) came out at 2.2. In addition, the solubility in series [3] (aqueous) is at least 247 µg/mL.
In the case of `CCNC(=O)c1cc2c(-c3cc(C(C)(C)O)ccc3Oc3c(C)cc(F)cc3C)cn(C)c(=O)c2[nH]1` [ABBV-744], the “BD2 selectivity over BET BD1” value in the series with BET BD2 is 330 fold.
In the case of `COc1cc(OC)c2c(=O)[nH]c(-c3cc(C)c(OCCO)c(C)c3)nc2c1` [Apabetalone/RVX-208], in the series on BET BD2, the “BD2 selectivity over BET BD1” value is 10 fold.
For `Cc1cc(-c2nc3ccccc3n2CC2CCOCC2)cn(C)c1=O` [Compound 13], in the series on BRD4 BD1 [1], the “BRD4 BD1 FRET pIC50” value was 7.2 and the “fold selectivity” value is listed as 6 fold. Also, in the series on BRD4 BD2, the “BRD4 BD2 FRET pIC50” value amounted to 6.4. The same molecule had a chromLogDpH7.4 in series [2] (pH 7.4) of 2.7. In addition, in series [3] (aqueous), the solubility was at least 142 µg/mL.
Take `CC(=O)N1CCC[C@@H](Cn2c(-c3cc(C)c(=O)n(C)c3)nc3cc(Br)ccc32)C1` [Compound 14, (S)-5-(1-((1-Acetylpiperidin-3-yl)methyl)-5-bromo-1H-benzo[d]imidazole-2-yl)-1,3-dimethylpyridin-2(1H)-one]: in the series on BRD4 BD1 [1], the “BRD4 BD1 FRET pIC50” value is on record as 8.0 ± 0.06 (2) and the “fold selectivity” value worked out at 50 fold. The “BRD4 BD2 FRET pIC50” value with BRD4 BD2 is listed as 6.3 ± 0.01 (2). The molecule also yielded a chromatographic logD in series [2] (pH 7.4) of 3.3. Further, in series [3], the solubility was at least 250 µg/mL.
On to `Cc1cc(-c2nc3ccccc3n2C[C@@H]2CCCNC2)cn(C)c1=O` [Compound 19, (R)-1,3-Dimethyl-5-(1-(piperidin-3-ylmethyl)-1H-benzo[d]imidazole-2-yl)pyridin-2(1H)-one], for which, in the series with BRD4 BD1 [1], the “BRD4 BD1 FRET pIC50” value worked out at 6.2 and the “fold selectivity” value came out at 16 fold. The “BRD4 BD2 FRET pIC50” value in the series with BRD4 BD2 is recorded as 5.0. The molecule also showed a chromatographic logD in series [2] (pH 7.4) of 0.7. The solubility in series [3] (aqueous (buffer not specified)) is at least 152 µg/mL.
By pKa is commonly meant the pH at which an ionisable group is half protonated. In the case of `Cc1cc(-c2nc3ccccc3n2C[C@@H]2CCCN(C(=O)C3CCN(CCF)CC3)C2)cn(C)c1=O` [Compound 34, (S)-5-(1-((1-(1-(2-Fluoroethyl)piperidine-4-carbonyl)piperidin-3-yl)methyl)-1H-benzo[d]imidazole-2-yl)-1,3-dimethylpyridin-2(1H)-one], in the series with BRD4 BD1 [1], the “BRD4 BD1 FRET pIC50” value was 7.6 and the “fold selectivity” value is recorded as 794 fold. Moreover, the “BRD4 BD2 FRET pIC50” value with BRD4 BD2 was determined as 4.7. Moreover, the IC50 in the series on MCP-1 was 63.1 nM. The molecule also showed a solubility in “CAD aqueous solubility” of at least 207 µg/mL. The molecule also gave a pKa in “pKa of the basic amine” of 7.3. The chromatographic logD in series [2] (pH 7.4) amounted to 2.5.
`Cc1cc(-c2nc3ccccc3n2C[C@@H]2CCCN(C(=O)C3CCN(CC(F)F)CC3)C2)cn(C)c1=O` [Compound 35, (S)-5-(1-((1-(1-(2,2-Difluoroethyl)piperidine-4-carbonyl)piperidin-3-yl)methyl)-1H-benzo[d]imidazole-2-yl)-1,3-dimethylpyridin-2(1H)-one]: in the series with BRD4 BD1 [1], the “BRD4 BD1 FRET pIC50” value is 6.7 and the “fold selectivity” value was found to be 100 fold. Besides, in the series on BRD4 BD2, the “BRD4 BD2 FRET pIC50” value came to 4.7. The IC50 in the series on MCP-1 is 631 nM. Moreover, the solubility in “CAD aqueous solubility” is at least 279 µg/mL. This molecule also came in with a pKa in the series “pKa of the basic amine” of 4.2. Further, in [2] (pH 7.4), the chromatographic logD is 3.2.
Regarding `Cc1cc(-c2nc3ccccc3n2C[C@@H]2CCCN(C(=O)C3CCN(CC(F)(F)F)CC3)C2)cn(C)c1=O` [Compound 36, (S)-1,3-Dimethyl-5-(1-((1-(1-(2,2,2-trifluoroethyl)piperidine-4-carbonyl)piperidin-3-yl)methyl)-1H-benzo[d]imidazole-2-yl)pyridin-2(1H)-one], in the series with BRD4 BD1 [1], the “BRD4 BD1 FRET pIC50” value turned out to be 6.3 and the “fold selectivity” value came to 40 fold. Also, the “BRD4 BD2 FRET pIC50” value with BRD4 BD2 was 4.7. Moreover, the IC50 in the series with MCP-1 is 1260 nM. This molecule also registered a solubility in the series “CAD aqueous solubility” of at least 201 µg/mL. In series [2] (pH 7.4), the chromatographic logD was 4.2.
`COCc1nc2cnc3cc(-c4c(C)noc4C)c(OC[C@H]4CCNC4)cc3c2n1[C@H](C)c1ccccc1` [GSK778]: in the series with BET BD1, the IC50 was under 100 nM and the “selectivity for BET BD1 over BET BD2” value was 30–140 fold.
Regarding `COc1ccccc1S(=O)(=O)Nc1ccc2c3c(cc(-n4cnc(C)c4)nc13)C(=O)N2C` [LT052], in the series on BRD4 BD1 [4], the IC50 was 88 nM and the “selectivity for BRD4 BD1 over BRD4 BD2” value is reported as 138 fold.

The values are drawn from publication PMC10726358 (Journal of Medicinal Chemistry, 2023).
